Assay results: US7326534B2, “Detection of gleevec resistant mutations” (Oregon Health and Science University, priority 2001, dated 2008)

Test system: Src family kinases
Experiment: inhibition of tyrosine kinase
Assay type: biochemical
Source text: […]. […] […]. […] […]

inhibition of kinase (in words): not
SMILES: Cc1ccc(NC(=O)c2ccc(CN3CCN(C)CC3)cc2)cc1Nc1nccc(-c2cccnc2)n1 [STI571, N-[4-methyl-3-(4-pyridin-3-yl-pyrimidin-2-ylamino)-phenyl]-4-(4-methyl-piperazin-1-ylmethyl)-benzamide]
